Values of other authors as cited in patent US6447793B2, “Water soluble, broad spectrum preservative system” (The Collaborative Group, Ltd., priority 1998, dated 2002).

Assays:
Conditions in all cases: pH of 4.5 or below
most bacterial = tested on: most bacterial
mold = tested on: mold
yeast = tested on: yeast

In the case of `C/C=C/C=C/C(=O)O` [sorbic acid, Sorbic acid], the “activity against most bacterial” value (most bacterial) is given as “poor”, the activity against mold (mold) is given as “very active” and the activity against yeast (yeast) is given as “fair”.
